Measured values from US20050112573A1, “Method of detecting toxic substance” (priority 2001, published 2005).

System: yeast genes (level of expressed mRNA)
Experiment: DNA chip analysis of expressed mRNA of yeast genes after 2 h culture with a toxic chemical substance
Assay type: cell-based, Saccharomyces cerevisiae S288C
Method: Yeast (Saccharomyces cerevtisiae S288C (α SUC2mal mel gap2 CUP1)) were cultured at 25° C. on YPD medium (yeast extract 1%, polypepton 2%, glucose 2%). One of toxic chemical substances was added to the cell at logarithmic growth phase, and the cell was further cultured for two hours. Cell was cultured without any chemical substance in the same condition, and was used as control. Concentrations of the chemical substances were defined to inhibit the growth of the yeast but not lead to death.
After the completion of cultivation, the culture was centrifuged to collect the cells. To the cells, sodium acetate buffer (50 mM sodium acetate, 10 mM EDTA, 1% SDS) was added, and the mixture was shaken at 65° C. for five minutes, followed by returning to room temperature, and obtaining the supernatant, which procedure was repeated two times. To the supernatant, ½ amount of a solution of phenol/chloroform was added, and the mixture was centrifuged to give a supernatant, which was added with an equal amount of chloroform, and the mixture was centrifuged to give a supernatant. To the supernatant, an equal amount of isopropanol containing 0.3 M sodium acetate was added, and the mixture was allowed to stand at room temperature for 30 minutes, after which the mixture was centrifuged to give a sediment of the whole RNAs. Seventy % ethanol was added to the sediment, and the mixture was again centrifuged to give a sediment, which was then dried and dissolved in water. mRNA was isolated from the whole RNAs as followings. In view of the fact that a poly A chain is attached to the 3′ terminus of mRNA, a polynucleotide having a poly T structure which was immobilized on the surface of latex beads was used to trap the mRNA, and then the mRNA was washed and eluted with spine column (Oligotex-dT30<Super>mRNA Purification Kit, Takara). Reverse transcription of the mRNA was conducted with a reverse transcriptase (Super Script II Reverse Transcriptase; catalogue No. 18064-014, GibcoBRL) using fluorescence-labeled nucleotides to give cDNAs that were introduced with Cy3-dUTP or Cy5-dUTP during the reverse transcription.
The labeled cDNAs were dissolved in TE buffer (10 mM Tris-HCl/1 mM EDTA, pH8.0), and the solution was dropped on the DNA chip containing the whole genes of yeast (DNA Chip Research Inc. Japan) so that the cDNAs were hybridized on the DNA chip at 65° C. for over 12 hours. The fluoresces intensity of the DNA chip was read with a scanner, and the ratio relative to the fluorescence intensity resulting from the absence of chemical substance was estimated as the following, which is shown in Tables 1 to 9: [formula]
In the Tables, “Intensity” indicated in the rightmost column is a value of the level of expressed mRNA of each gene in control cells as divided by the average level of the expressions of the whole genes.

Na2As [(1)]
The level of expressed mRNA in the presence of chemical substance/ (yeast gene YAL053W, ratio to control without chemical): 0.9
The level of expressed mRNA in the presence of chemical substance/The level of expressed mRNA in the absence of chemical substance (yeast gene YAR010C): 0.8
The level of expressed mRNA in the presence of chemical substance/The level of expressed mRNA in the absence of chemical substance (yeast gene YBL005W-A): 1.0
The level of expressed mRNA in the presence of chemical substance/The level of expressed mRNA in the absence of chemical substance (yeast gene YBL041W): 1.2
The level of expressed mRNA in the presence of chemical substance/The level of expressed mRNA in the absence of chemical substance (yeast gene YBL043W): 1.2
The level of expressed mRNA in the presence of chemical substance/ (yeast gene YBL048W, ratio to control without chemical substance, 2 h culture): 2.0
The level of expressed mRNA in the presence of chemical substance/The level of expressed mRNA in the absence of chemical substance (yeast gene YBL078C): 2.3
The level of expressed mRNA in the presence of chemical substance/ (yeast gene YBL107C, ratio to control without chemical substance, 2 h culture): 1.4
The level of expressed mRNA in the presence of chemical substance/in the absence of chemical substance (yeast gene YBR036C): 0.8
The level of expressed mRNA in the presence of chemical substance/The level of expressed mRNA in the absence of chemical substance (yeast gene YBR214W): 0.9
The level of expressed mRNA in the presence of chemical substance/in the absence of chemical substance (yeast gene YBR298C): 1.1
The level of expressed mRNA in the presence of chemical substance/The level of expressed mRNA in the absence of chemical substance (yeast gene YCL020W): 1.1
The level of expressed mRNA in the presence of chemical substance/The level of expressed mRNA in the absence of chemical substance (yeast gene YCL027W): 0.7
The level of expressed mRNA in the presence of chemical substance/The level of expressed mRNA in the absence of chemical substance (yeast gene YCR004C): 1.7
The level of expressed mRNA in the presence of chemical substance/The level of expressed mRNA in the absence of chemical substance (yeast gene YCR071C): 1.1
The level of expressed mRNA in the presence of chemical substance/The level of expressed mRNA in the absence of chemical substance (yeast gene YCR088W): 0.9
The level of expressed mRNA in the presence of chemical substance/The level of expressed mRNA in the absence of chemical substance (yeast gene YDL008W): 1.1
The level of expressed mRNA in the presence of chemical substance/ (yeast gene YDL072C, ratio to control without chemical): 1.3
The level of expressed mRNA in the presence of chemical substance/in the absence of chemical substance (yeast gene YDL078C): 0.7
The level of expressed mRNA in the presence of chemical substance/ (yeast gene YDL204W, ratio to control without chemical): 1.4
The level of expressed mRNA in the presence of chemical substance/in the absence of chemical substance (yeast gene YDL215C): 1.0
The level of expressed mRNA in the presence of chemical substance/ (yeast gene YDL222C, ratio to control without chemical): 0.9
The level of expressed mRNA in the presence of chemical substance/The level of expressed mRNA in the absence of chemical substance (yeast gene YDL238C): 0.7
The level of expressed mRNA in the presence of chemical substance/The level of expressed mRNA in the absence of chemical substance (yeast gene YDR055W): 1.7
The level of expressed mRNA in the presence of chemical substance/The level of expressed mRNA in the absence of chemical substance (yeast gene YDR084C): 0.9
The level of expressed mRNA in the presence of chemical substance/The level of expressed mRNA in the absence of chemical substance (yeast gene YDR085C): 1.9
The level of expressed mRNA in the presence of chemical substance/The level of expressed mRNA in the absence of chemical substance (yeast gene YDR104C): 0.8
The level of expressed mRNA in the presence of chemical substance/The level of expressed mRNA in the absence of chemical substance (yeast gene YDR115W): 1.3
The level of expressed mRNA in the presence of chemical substance/The level of expressed mRNA in the absence of chemical substance (yeast gene YDR259C): 1.4
The level of expressed mRNA in the presence of chemical substance/in the absence of chemical substance (yeast gene YDR297W): 1.5
The level of expressed mRNA in the presence of chemical substance/The level of expressed mRNA in the absence of chemical substance (yeast gene YDR315C): 1.0
The level of expressed mRNA in the presence of chemical substance/ (yeast gene YDR330W, ratio to control without chemical substance, 2 h culture): 0.8
The level of expressed mRNA in the presence of chemical substance/The level of expressed mRNA in the absence of chemical substance (yeast gene YDR358W): 0.7
The level of expressed mRNA in the presence of chemical substance/in the absence of chemical substance (yeast gene YDR387C): 0.8
The level of expressed mRNA in the presence of chemical substance/The level of expressed mRNA in the absence of chemical substance (yeast gene YDR388W): 0.7
The level of expressed mRNA in the presence of chemical substance/ (yeast gene YDR411C, ratio to control without chemical substance, 2 h culture): 0.9
The level of expressed mRNA in the presence of chemical substance/The level of expressed mRNA in the absence of chemical substance (yeast gene YDR432W): 0.5
The level of expressed mRNA in the presence of chemical substance/The level of expressed mRNA in the absence of chemical substance (yeast gene YDR481C): 0.7
The level of expressed mRNA in the presence of chemical substance/The level of expressed mRNA in the absence of chemical substance (yeast gene YDR510W): 1.0
The level of expressed mRNA in the presence of chemical substance/ (yeast gene YDR511W, ratio to control without chemical substance, 2 h culture): 1.3
The level of expressed mRNA in the presence of chemical substance/ (yeast gene YDR545W, ratio to control without chemical substance, 2 h culture): 0.6
The level of expressed mRNA in the presence of chemical substance/ (yeast gene YEL001C, ratio to control without chemical): 1.0
The level of expressed mRNA in the presence of chemical substance/The level of expressed mRNA in the absence of chemical substance (yeast gene YEL042W): 0.6
The level of expressed mRNA in the presence of chemical substance/The level of expressed mRNA in the absence of chemical substance (yeast gene YEL066W): 2.0
The level of expressed mRNA in the presence of chemical substance/ (yeast gene YER004W, ratio to control without chemical substance, 2 h culture): 1.0
The level of expressed mRNA in the presence of chemical substance/ (yeast gene YER035W, ratio to control without chemical substance, 2 h culture): 1.4
The level of expressed mRNA in the presence of chemical substance/The level of expressed mRNA in the absence of chemical substance (yeast gene YER039C): 1.0
The level of expressed mRNA in the presence of chemical substance/ (yeast gene YER079W, ratio to control without chemical substance, 2 h culture): 1.1
The level of expressed mRNA in the presence of chemical substance/ (yeast gene YER106W, ratio to control without chemical): 1.3
The level of expressed mRNA in the presence of chemical substance/The level of expressed mRNA in the absence of chemical substance (yeast gene YER107C): 0.9
The level of expressed mRNA in the presence of chemical substance/The level of expressed mRNA in the absence of chemical substance (yeast gene YER130C): 0.9
The level of expressed mRNA in the presence of chemical substance/ (yeast gene YER158C, ratio to control without chemical substance, 2 h culture): 1.2
The level of expressed mRNA in the presence of chemical substance/ (yeast gene YER163C, ratio to control without chemical substance, 2 h culture): 1.1
The level of expressed mRNA in the presence of chemical substance/ (yeast gene YER175C, ratio to control without chemical substance, 2 h culture): 0.9
The level of expressed mRNA in the presence of chemical substance/ (yeast gene YFL006W, ratio to control without chemical substance, 2 h culture): 0.8
